Measurements published in US20090082342A1, “N-SUBSTITUTED PIPERIDINE DERIVATIVES AS SEROTONIN RECEPTOR AGENTS” (Acadia Pharmaceuticals, Inc., priority 2007, published 2009).
Counter-ions that a name gives are not always drawn.

Assays:
Type in all cases: cell-based
5-HT2A receptor [1] = biological target: T1, 5-HT2A receptor (Homo sapiens, UniProt P28223); experiment: R-SAT functional receptor assay, antagonist activity at 5-HT2A
T1 construct: expressed in transfected cells; host or cells: NIH3T3 cells, pSI mammalian expression vector
T1 sequence (P28223 whole entry): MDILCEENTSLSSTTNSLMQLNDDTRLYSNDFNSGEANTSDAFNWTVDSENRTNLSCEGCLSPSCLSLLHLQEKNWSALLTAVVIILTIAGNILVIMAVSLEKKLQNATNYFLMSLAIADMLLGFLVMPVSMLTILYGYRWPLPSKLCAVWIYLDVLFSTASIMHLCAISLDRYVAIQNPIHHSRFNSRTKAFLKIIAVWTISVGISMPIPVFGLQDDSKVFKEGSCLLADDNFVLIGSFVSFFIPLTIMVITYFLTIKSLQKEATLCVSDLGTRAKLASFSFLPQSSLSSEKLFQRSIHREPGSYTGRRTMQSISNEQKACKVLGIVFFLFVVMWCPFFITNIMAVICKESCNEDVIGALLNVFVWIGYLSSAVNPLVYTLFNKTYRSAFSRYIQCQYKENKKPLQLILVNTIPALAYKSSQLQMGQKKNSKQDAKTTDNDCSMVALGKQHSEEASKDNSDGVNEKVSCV
Protocol: (§1) Receptor Selection and Amplification (R-SAT®) Assays. The functional receptor assay, Receptor Selection and Amplification Technology (R-SAT®), was used (with minor modifications from the procedure described previously (Brann, M. R. U.S. Pat. No. 5,707,798, 1998; Chem. Abstr. 1998, 128, 111548) to screen compounds for efficacy at the 5-HT2A receptor. Briefly, NIH3T3 cells were grown in 96 well tissue culture plates to 70-80% confluence. Cells were transfected for 12-16 h with plasmid DNAs using superfect (Qiagen Inc.) as per manufacturer's protocols. R-SAT's were generally performed with 50 ng/well of receptor and 20 ng/well of β-galactosidase plasmid DNA. All receptor and G-protein constructs used were in the pSI mammalian expression vector (Promega Inc) as described previously. The 5-HT2A or 5-HT2C receptor gene was amplified by nested PCR from brain cDNA using the oligodeoxynucleotides based on the published sequence (Saltzman et. al, Biochem. Biophys. Res. Comm. 1991, 181, 1469). For large-scale transfections, cells were transfected for 12-16 h, then trypsinized and frozen in DMSO. Frozen cells were later thawed, plated at 10,000-40,000 cells per well of a 96 well plate that contained drug. With both methods, cells were then grown in a humidified atmosphere with 5% ambient CO2 for five days. Media was then removed from the plates and marker gene activity was measured by the addition of the β-galactosidase substrate o-nitrophenyl β-D-galactopyranoside (ONPG, in PBS with 5% NP-40). The resulting colorimetric reaction was measured in a spectrophotometric plate reader (Titertek Inc.) at […]. All data were analyzed using the computer program XLFit (IDBSm). Efficacy is the percent maximal repression compared to repression by a control compound (ritanserin in the case of 5-HT2A). pIC50 is the negative of the log(IC50), where IC50 is the calculated concentration in Molar that produces 50% maximal repression. Various metabolites of N-(1-methylpiperidin-4-yl)-N-(4-fluorophenylmethyl)-N′-(4-(2-methylpropyloxy)phenylmethyl) carbamide, including the compounds of Formulae (I), (II), (III), (IV) and (V) as well as other metabolites, were assayed as described herein.

5-HT2A receptor [2] = biological target: T1, 5-HT2A receptor; experiment: R-SAT functional receptor assay, inverse agonist activity at 5-HT2A
Protocol: as §1

5-HT2C receptor [3] = biological target: T2, 5-HT2C receptor (Homo sapiens, UniProt P28335); experiment: R-SAT functional receptor assay, antagonist activity at 5-HT2C
T2 construct: expressed in transfected cells; host or cells: NIH3T3 cells, pSI mammalian expression vector
T2 sequence (P28335 33-458): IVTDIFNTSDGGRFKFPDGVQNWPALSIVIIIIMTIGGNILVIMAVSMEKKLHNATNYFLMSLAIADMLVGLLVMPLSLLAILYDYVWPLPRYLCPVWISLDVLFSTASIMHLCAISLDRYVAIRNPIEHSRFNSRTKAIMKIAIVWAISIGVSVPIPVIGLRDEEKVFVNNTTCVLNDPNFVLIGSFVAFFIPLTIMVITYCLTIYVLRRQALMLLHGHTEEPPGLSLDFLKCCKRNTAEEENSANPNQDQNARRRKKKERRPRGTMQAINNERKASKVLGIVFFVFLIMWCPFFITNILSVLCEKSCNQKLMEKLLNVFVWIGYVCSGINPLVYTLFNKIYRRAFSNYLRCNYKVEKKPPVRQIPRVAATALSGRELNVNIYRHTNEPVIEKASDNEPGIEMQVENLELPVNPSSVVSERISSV
Protocol: as §1

5-HT2C receptor [4] = biological target: T2, 5-HT2C receptor; experiment: R-SAT functional receptor assay, inverse agonist activity at 5-HT2C
Protocol: as §1, with “Various metabolites of N-(1-methylpiperidin-4-yl)-N-(4-fluorophenylmethyl)-N′-(4-(2-methylpropyloxy)phenylmethyl) carbamide, including the compounds of Formulae (I), (II), (III), (IV) and (V) as well as other metabolites, were assayed as described herein.” left out

SMILES | Ki (5-HT2A receptor [1]) [µM] | IC50 (5-HT2A receptor [2]) [µM] | Ki (5-HT2C receptor [3]) [µM] | IC50 (5-HT2C receptor [4]) [µM]
CN1CCC(N(Cc2ccc(F)cc2)C(=O)NCc2ccc(O)cc2)CC1 [Formula (I), N-(4-Fluorobenzyl)-N-(1-methylpiperidin-4-yl)-N′-(4-hydroxybenzyl)carbamide Hydrochloride] | 0.0126 | 0.0316 | 0.316 | 
CC(C)COc1ccc(CNC(=O)N(Cc2ccc(F)cc2)C2CCNCC2)cc1 [Formula (II), N-(4-Fluorobenzyl)-N-(piperidin-4-yl)-N′-(4-isobutoxybenzyl)carbamide Hydrochloride] | 0.00126 | 0.00251 | 0.1 | 
CN1CCC(N(Cc2ccc(F)cc2)C(=O)NCc2ccc(OCC(C)(C)O)cc2)CC1 [Formula (III), N-(4-Fluorobenzyl)-N-(1-methylpiperidin-4-yl)-N′-[4-(2-hydroxy)isobutoxybenzyl]carbamide Hydrochloride] | 0.001 | 0.002 | 0.158 | 0.794
C[C@H](CO)COc1ccc(CNC(=O)N(Cc2ccc(F)cc2)C2CCN(C)CC2)cc1 [Formula (IV), N-(4-Fluorobenzyl)-N-(1-methyl-piperidin-4-yl)-N′-(4-(R)-[(3-hydroxy)-isobutoxy]benzyl)carbamide] |  | 0.00316 | 0.158 | 0.2
CC(C)COc1ccc(CNC(=O)N(Cc2ccc(F)cc2)C2CC[N+](C)([O-])CC2)cc1 (centres unmarked) [Formula (V), N-(4-Fluorobenzyl)-N-(1-methyl-1-oxopiperidin-4-yl)-N′-(4-isobutoxybenzyl)carbamide] | 0.0316 | 0.0316 | 0.398 | 2
